Test [1] has as its system IL-6 production in peritoneal murin macrophages stimulated with LPS. Description: Production of IL-6 by peritoneal murine macrophages stimulated with LPS. In kind it is cell-based, mouse. As to conditions: for Degree of inhibition of IL-6 production when added after stimulation with LPS: peptide added at different times after LPS; for IC50: peritoneal murin macrophages stimulated with LPS, read-out: IC50 for inhibition of IL-6 production; for Highest degree of inhibition of IL-6 production: peritoneal murin macrophages, LPS 10 ngr./ml. On the procedure: FIG. 3 represents the production of IL-6 by murin macrophages in culture (5×10^5 cells/ml) stimulated with 10 ngr/ml of LPS in presence or absence of 10^−8 M of VIP or PACAP over a period of 24 hours.
FIG. 4 represents the production of IL-6 by murin macrophages in culture (5×10^5 cells/ml) after 6 hours of culture with 10 ngr/ml of LPS and to which 10^−8 M of VIP or PACAP is added at different times.
In experiments carried out in vitro VIP and PACAP inhibit the production of IL-6 in peritoneal murin macrophages stimulated with LPS. The highest degree of inhibition reaches levels near to 90% and occurs with doses of stimulation of 10 ngr./ml of LPS.

In another test the test system is circulating TNFα. Nature of the test: Levels of circulating TNFα in mice after injection of LPS. The class given is in vivo. As to conditions: 2 hours after 25 μgr LPS, simultaneous 5 nmol peptide. On the procedure:
In an experiment carried out with mice the levels of circulating TNFα 2 hours after injection of 25 μgr. of LPS approach 4 ngr./ml. Simultaneous administration of 5 nmol of VIP or PACAP reduced said levels by 60%.

Another test has as its system circulating IL-6. Nature of the test: Levels of circulating IL-6 in mice after injection of LPS. The class given is in vivo. As to conditions: 2 hours after 25 μgr LPS, simultaneous 5 nmol peptide. Here is the method:
In an experiment carried out with mice the levels of circulating IL-6 2 hours after injection of 25 μgr. of LPS approach 1.5 ngr./ml Simultaneous administration of 5 nmol of VIP or PACAP reduced said levels by 60% and 75% respectively.

Test [2] relates to TNFα production in peritoneal murin macrophages stimulated with LPS. Nature of the test: Production of TNFα by peritoneal murine macrophages stimulated with LPS. As to conditions: for Inhibitory effect on TNFα production when added after 4 hours: peptide added 4 hours after LPS; for Inhibitory effect on TNFα production when added up until 1 hour after LPS stimulation: peptide added up until 1 hour after LPS, compared with simultaneous addition; for IC50: peritoneal murin macrophages stimulated with LPS, read-out: IC50 for inhibition of TNFα production; for Highest degree of inhibition of TNFα production: peritoneal murin macrophages, LPS 1 to 10 ng/ml. The class given is cell-based, mouse. On the procedure:
FIG. 1 represents the production of TNFα by murin macrophages in culture (5×10^5 […]) stimulated with 10 ngr/ml of LPS in presence or absence of 10^−8 M of VIP or PACAP over a period of 24 hours.
FIG. 2 represents the production of TNFα by murin macrophages in culture (5×10^5 cells/ml) after 6 hours of culture with 10 ngr/ml of LPS and to which 10^−8 M of VIP or PACAP is added at different times.
In experiments carried out in vitro VIP and PACAP inhibit the production of TNFα in peritoneal murin macrophages stimulated with LPS. The highest degree of inhibition reaches levels near to 60% and occurs with doses of stimulation between 1 and 10 ng/ml of LPS. The IC50 is around 80 pM, both for VIP and for PACAP and the effect was observed until the end of the experiment (see FIG. 1). The inhibitory effect is the same if both neuropeptides are added up until 1 hour after stimulating the macrophages with LPS, although it reduces progressively until disappearing if added after 4 hours (see FIG. 2).

Another test has as its system mRNA of TNFα. Nature of the test: Northern blot for TNFα mRNA in LPS-activated macrophages. The class given is cell-based, Mouse. As to conditions: macrophages activated with LPS and exposed to peptide. On the procedure:
(§1) Mouse macrophages were submitted to the experimental conditions of examples 1 and 3 and their mRNA isolated. This was then analysed using the Northern Blot technique to detect mRNA of TNFα and IL-6.

Another test has as its system mRNA of IL-6. Description: Northern blot for IL-6 mRNA in LPS-activated macrophages. The class given is cell-based, Mouse. As to conditions: macrophages activated with LPS and exposed to peptide. Here is the method: as §1
Test [3] concerns lethal effects of LPS in mice. Description: Survival of mice injected with a lethal dose of LPS. In kind it is in vivo. As to conditions: 400 μgr LPS; for Survival rate, administration up to 1 hour after LPS: peptide up to 1 hour after LPS; for Survival rate at the end of the experiment: simultaneous 5 nmol peptide, 4-day period. Here is the method: FIG. 6 represents the survival of mice injected with 400 μgr. of LPS and, either simultaneously or after 30 minutes, 1 or 4 hours, with 5 nmol. of VIP or PACAP. A. Control; B: VIP a 0 h.; C: VIP a 0.5 h; D: VIP a 1 h.; E: VIP a 4 h.;
An experiment was carried out in which the survival over a 4-day period was studied of mice that had been injected with 400 μgr. of LPS. The mortality in these circumstances was 100% after 36 hours. With simultaneous administration of 5 nmol. of VIP or PACAP a survival rate of 60% was attained at the end of the experiment. Administration of neuropeptides up to 1 hour after injection with LPS still gave survival rates near to 50%.

For the substance HSDAVFTDNYTRLRKMAVKKYLNSILN [VIP], in test [1], the “Degree of inhibition of IL-6 production when added after stimulation with LPS” value was “progressively less”, the IC50 amounted to 0.0086 nM and the “Highest degree of inhibition of IL-6 production” value is recorded as roughly 90%. The “Reduction of circulating TNFα levels” value in the test with circulating TNFα is given as 60%. Further, in the test on circulating IL-6, the “Reduction of circulating IL-6 levels” value turned out to be 60%. Further, in test [2], the “Inhibitory effect on TNFα production when added after 4 hours” value is listed as “disappearing”, the “Inhibitory effect on TNFα production when added up until 1 hour after LPS stimulation” value is “the same”, the IC50 was roughly 0.08 nM and the “Highest degree of inhibition of TNFα production” value was roughly 60%. For the same substance, the “Transcripts for TNFα (Northern blot)” value in the test with mRNA of TNFα was “absence of transcripts”. The “Transcripts for IL-6 (Northern blot)” value with mRNA of IL-6 is listed as “absence of transcripts”. For the same substance, in test [3], the “Survival rate, administration up to 1 hour after LPS” value is listed as roughly 50% and the “Survival rate at the end of the experiment” value worked out at 60%.
For “PACAP [two molecular forms PACAP-38 and PACAP-27]”, in test [1], the “Degree of inhibition of IL-6 production when added after stimulation with LPS” value is recorded as “progressively less”, the IC50 was 0.0086 nM and the “Highest degree of inhibition of IL-6 production” value is listed as roughly 90%. Moreover, in the test on circulating TNFα, the “Reduction of circulating TNFα levels” value is on record as 60%. The “Reduction of circulating IL-6 levels” value with circulating IL-6 was found to be 75%. For the same substance, in test [2], the “Inhibitory effect on TNFα production when added after 4 hours” value is reported as “disappearing”, the “Inhibitory effect on TNFα production when added up until 1 hour after LPS stimulation” value was “the same”, the IC50 was roughly 0.08 nM and the “Highest degree of inhibition of TNFα production” value is listed as roughly 60%. Also, the “Transcripts for TNFα (Northern blot)” value in the test with mRNA of TNFα is reported as “absence of transcripts”. In the test with mRNA of IL-6, the “Transcripts for IL-6 (Northern blot)” value is “absence of transcripts”. Further, in test [3], the “Survival rate, administration up to 1 hour after LPS” value is given as roughly 50% and the “Survival rate at the end of the experiment” value turned out to be 60%.

As usually defined, the IC50 is the concentration that inhibits the measured activity by half.

These data come from patent publication US6429188B1, “Method for treating the endotoxic shock in mammals” (Universidad Complutense de Madrid, priority 1998, dated 2002).
